Experiment: Chemical stability of dry powder formulations on storage in glass vials, residual test compound and hydrolysis product by UPLC
Format: physicochemical
Details: 25 °C, 60% rel. humidity; for CHF 5551.02 values (%): hydrolysis degradation product
Method: Dry powder formulations were prepared comprising as a carrier either particles of alpha-lactose monohydrate 212-355 microns alone (coarse) or coated with magnesium stearate (coated). Said coated particles were obtained by mixing alpha-lactose monohydrate with 1% magnesium stearate in a Turbula mixer for 4 hours.
Samples of the manufactured mixtures were filled in glass vials and stored under stressing conditions ([…]) in comparison to a sample stored under long tem conditions (25 ° C., 60% relative humidity).
The percentage amount of residual test compound and of the degradation product due to hydrolysis, (R)-1-hydroxy-(2-oxo-2-thiophen-2-yl-ethyl)-1-azonia-bicyclo[2.2.2]octane; chloride quoted as CHF 5551.02, was determined in the two formulations by ultra performance liquid chromatography (UPLC) in comparison to the active ingredient without the carrier (API). The variation of CHF 5551.2 content with the time is also plotted in FIG. 3.

## O=C(OC(c1cccc(F)c1)c1cccc(F)c1)O[C@H]1C[N+]2(CC(=O)c3cccs3)CCC1CC2.[Cl-] [Test compound, (R)-3-[bis-(3-fluoro-phenyl)-methoxycarbonyloxy]-1-(2-oxo-2-thiophen-2-yl-ethyl)-1-azonia-bicyclo[2.2.2]octane; chloride]
0 days
  Test compound values (%): 100.0%
  CHF 5551.02 values (%): 0.08%
2 days
  Test compound values (%): 99.9%
  CHF 5551.02 values (%): 0.20%
4 days
  Test compound values (%): 99.9%
  CHF 5551.02 values (%): 0.29%
7 days
  Test compound values (%): 99.9%
  CHF 5551.02 values (%): 0.24%
9 days
  Test compound values (%): 99.9%
  CHF 5551.02 values (%): 0.28%
11 days
  Test compound values (%): 99.9%
  CHF 5551.02 values (%): 0.29%
14 days
  Test compound values (%): 100.0%
  CHF 5551.02 values (%): 0.23%

Reference: US20120082727A1, “USE OF MAGNESIUM STEARATE IN DRY POWDER FORMULATIONS FOR INHALATION” (CHIESI FARMACEUTICI S.p.A., priority 2010, published 2012)
